Test results taken from patent publication US9920060B2, “Pyrazolo[3,4-d]pyrimidine compound or salt thereof” (TAIHO PHARMACEUTICAL CO., LTD., priority 2015, dated 2018).

How the values were obtained:
[1] = target: purified recombinant human HER2 protein (Homo sapiens (Human), UniProt P04626); assay: Inhibitory effect on HER2-phosphorylating activity (in vitro); assay type: biochemical; conditions: ATP 6 uM, substrate peptide 0.5 uM, 25° C. for 40 minutes
Protocol: Next, the HER2 protein, the substrate peptide (final concentration: 0.5 uM), manganese chloride (final concentration: 10 mM), ATP (final concentration: 6 uM), and the solution of the compound of the present invention in DMSO (final concentration of DMSO: 5%) were added into a buffer solution for kinase reaction (15 mM Tris (pH 7.5), 2 mM dithiothreitol, and 0.01% Tween 20), and the mixture was incubated at 25° C. for 40 minutes for kinase reaction. The reaction was terminated by adding EDTA (final concentration: 30 mM) thereto. Finally, the unphosphorylated substrate peptide (S) and the phosphorylated peptide (P) were separated and detected by microcapillary electrophoresis using LabChip® EZ Reader II (PerkinElmer Inc.).

A431 cells = assay: Cytostatic activity against EGFR-expressing cell line A431 (CellTiter-Glo); assay type: cell-based; conditions: EGFR-overexpressing human epithelioid cancer cell line, 3-day culture; read-out: A431 cell growth inhibitory activity IC50 value
From the text: HER2-overexpressing human stomach cancer cell line NCI-N87 cells were suspended in RPMI1640 medium (manufactured by Life Technologies Corp.) containing 10% fetal bovine serum. Meanwhile, EGFR-overexpressing highly activated human epithelioid cancer cell line A431 cells were suspended in DMEM, high glucose medium (manufactured by Life Technologies Corp.) containing 10% fetal bovine serum. Subsequently, each cell suspension was inoculated to each well of a 384-well flat-bottom microplate and cultured at 37° C. for 1 day in an incubator containing 5% carbon dioxide. The compound of the present invention or Comparative Example compound 1 was dissolved in DMSO, and the test compound was diluted into a concentration of 500 times the final concentration using DMSO. The solution of the test compound in DMSO was diluted with the medium used in the suspension of each cell line, and this solution was added at a final concentration of DMSO of 0.2% to each well of the cell culture plate, followed by further culture at 37° C. for 3 days in an incubator containing 5% carbon dioxide.
Rate of growth inhibition (%)=(C−T)/(C)×100 T: Luminescence intensity of a well supplemented with the test compound C: Luminescence intensity of a well not supplemented with the test compound

Chain of purified recombinant human HER2 protein (P04626 23-1255): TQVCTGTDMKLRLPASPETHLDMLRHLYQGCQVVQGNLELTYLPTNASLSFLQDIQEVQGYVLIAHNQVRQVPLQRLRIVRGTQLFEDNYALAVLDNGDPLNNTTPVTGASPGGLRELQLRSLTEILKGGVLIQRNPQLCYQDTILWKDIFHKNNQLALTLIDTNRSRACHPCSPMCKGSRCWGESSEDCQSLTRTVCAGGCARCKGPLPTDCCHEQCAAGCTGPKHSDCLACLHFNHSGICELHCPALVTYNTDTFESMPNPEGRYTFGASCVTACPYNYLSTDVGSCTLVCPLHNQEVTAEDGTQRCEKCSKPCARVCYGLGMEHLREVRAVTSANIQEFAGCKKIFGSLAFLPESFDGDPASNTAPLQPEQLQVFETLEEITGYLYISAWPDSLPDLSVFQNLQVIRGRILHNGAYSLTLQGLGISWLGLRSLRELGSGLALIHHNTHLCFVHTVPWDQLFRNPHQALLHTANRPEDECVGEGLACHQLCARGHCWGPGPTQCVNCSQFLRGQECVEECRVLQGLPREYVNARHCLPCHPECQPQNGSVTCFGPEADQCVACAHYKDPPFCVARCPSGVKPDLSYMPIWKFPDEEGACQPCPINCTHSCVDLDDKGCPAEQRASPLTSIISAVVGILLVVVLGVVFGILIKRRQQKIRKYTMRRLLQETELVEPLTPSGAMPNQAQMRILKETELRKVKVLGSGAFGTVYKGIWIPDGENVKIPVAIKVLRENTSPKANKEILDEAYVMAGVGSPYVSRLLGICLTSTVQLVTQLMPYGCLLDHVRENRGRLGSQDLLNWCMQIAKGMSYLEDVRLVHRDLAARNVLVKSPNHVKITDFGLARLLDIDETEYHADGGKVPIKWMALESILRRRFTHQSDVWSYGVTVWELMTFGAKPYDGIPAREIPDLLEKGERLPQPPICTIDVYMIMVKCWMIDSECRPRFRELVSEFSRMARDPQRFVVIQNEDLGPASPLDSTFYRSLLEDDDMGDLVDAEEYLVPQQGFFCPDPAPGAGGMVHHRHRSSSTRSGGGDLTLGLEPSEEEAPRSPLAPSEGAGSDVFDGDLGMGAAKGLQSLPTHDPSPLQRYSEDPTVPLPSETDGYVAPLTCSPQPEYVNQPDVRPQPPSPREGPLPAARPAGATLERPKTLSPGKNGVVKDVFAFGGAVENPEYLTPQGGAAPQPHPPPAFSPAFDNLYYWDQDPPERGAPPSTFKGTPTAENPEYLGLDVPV

| IC50 [1] [nM] | Compound | IC50 (A431 cells) [nM] |
| --- | --- | --- |
| 11 | C=CC(=O)N1CCC[C@@H](n2nc(C(=O)Nc3ccc(CC(=O)N(C)C)c4ccccc34)c3c(N)ncnc32)C1 [Example 5, (R)-1-(1-acryloylpiperidin-3-yl)-4-amino-N-(4-(2-(dimethylamino)-2-oxoethyl)naphthalen-1-yl)-1H-pyrazolo[3,4-d]pyrimidine-3-carboxamide] | – |
| 13 | C=CC(=O)N1CCC[C@@H](n2nc(C(=O)Nc3ccc(CC(=O)N(C)C)c(C)c3C)c3c(N)ncnc32)C1 [Example 13, (R)-1-(1-acryloylpiperidin-3-yl)-4-amino-N-(4-(2-(dimethylamino)-2-oxoethyl)-2,3-dimethylphenyl)-1H-pyrazolo[3,4-d]pyrimidine-3-carboxamide] | – |
| 21 | C=CC(=O)N1CCC[C@@H](n2nc(C(=O)Nc3ccc(CC(=O)N(C)C)cc3F)c3c(N)ncnc32)C1 [Example 25, (R)-1-(1-acryloylpiperidin-3-yl)-4-amino-N-(4-(2-(dimethylamino)-2-oxoethyl)-2-fluorophenyl)-1H-pyrazolo[3,4-d]pyrimidine-3-carboxamide] | – |
| 22 | C=CC(=O)N1CCC[C@@H](n2nc(C(=O)Nc3cc(C)c(CC(=O)N(C)C)cc3C)c3c(N)ncnc32)C1 [Example 39, (R)-1-(1-acryloylpiperidin-3-yl)-4-amino-N-(4-(2-(dimethylamino)-2-oxoethyl)-2,5-dimethylphenyl)-1H-pyrazolo[3,4-d]pyrimidine-3-carboxamide] | – |
| 11 | C=CC(=O)N1CCC[C@@H](n2nc(C(=O)Nc3ccc(CC(=O)N4CCCC4)cc3C)c3c(N)ncnc32)C1 [Example 71, (R)-1-(1-acryloylpiperidin-3-yl)-4-amino-N-(2-methyl-4-(2-oxo-2-(pyrrolidin-1-yl)ethyl)phenyl)-1H-pyrazolo[3,4-d]pyrimidine-3-carboxamide] | – |
| 74 | C=CC(=O)N1CCC[C@@H](n2nc(C(=O)Nc3ccc(CC(=O)N4CC(O)C4)cc3C)c3c(N)ncnc32)C1 [Example 73, (R)-1-(1-acryloylpiperidin-3-yl)-4-amino-N-(4-(2-(3-hydroxyazetidin-1-yl)-2-oxoethyl)-2-methylphenyl)-1H-pyrazolo[3,4-d]pyrimidine-3-carboxamide] | – |
| 17 | C=CC(=O)N1CCC[C@@H](n2nc(C(=O)Nc3ccc(NC(=O)N(C)C)cc3C)c3c(N)ncnc32)C1 [Example 74, (R)-1-(1-acryloylpiperidin-3-yl)-4-amino-N-(4-(3,3-dimethylureido)-2-methylphenyl)-1H-pyrazolo[3,4-d]pyrimidine-3-carboxamide] | – |
| 16 | C=CC(=O)N1CCC[C@@H](n2nc(C(=O)Nc3ccc(NC(=O)N4CCCC4)cc3C)c3c(N)ncnc32)C1 [Example 75, (R)-1-(1-acryloylpiperidin-3-yl)-4-amino-N-(2-methyl-4-(pyrrolidine-1-carboxamido)phenyl)-1H-pyrazolo[3,4-d]pyrimidine-3-carboxamide] | – |
| 5 | C=CC(=O)N1CC(F)C[C@@H](n2nc(C(=O)Nc3ccc(CC(=O)N(C)C)cc3Cl)c3c(N)ncnc32)C1 (stereo partly drawn) [Example 76, 1-((3R)-1-acryloyl-5-fluoropiperidin-3-yl)-4-amino-N-(2-chloro-4-(2-(dimethylamino)-2-oxoethyl)phenyl)-1H-pyrazolo[3,4-d]pyrimidine-3-carboxamide] | – |
| 13 | C=CC(=O)N1CC(F)C[C@@H](n2nc(C(=O)Nc3ccc(CC(=O)N(C)C)c(C)c3C)c3c(N)ncnc32)C1 (stereo partly drawn) [Example 77, 1-((3R)-1-acryloyl-5-fluoropiperidin-3-yl)-4-amino-N-(4-(2-(dimethylamino)-2-oxoethyl)-2,3-dimethylphenyl)-1H-pyrazolo[3,4-d]pyrimidine-3-carboxamide] | – |
| – | (R,E)-4-(4-amino-1-(1-(4-dimethylamino)but-2-enoyl)piperidin-3-yl)-1H-pyrazolo[3,4-d]pyrimidine-3-carboxamido)naphthalen-1-yl dimethylcarbamate [Example 66] | 6040 |

| Compound | IC50 [1] [nM] | IC50 (A431 cells) [nM] |
| --- | --- | --- |
| C=CC(=O)N1CCC[C@@H](n2nc(C(=O)Nc3ccc(OC(=O)N(C)C)cc3)c3c(N)ncnc32)C1 [Example 21, (R)-4-(1-(1-acryloylpiperidin-3-yl)-4-amino-1H-pyrazolo[3,4-d]pyrimidine-3-carboxamido)phenyldimethyl carbamate] | 26 | – |
